Measured values as given in patent US7572606B1 (Nereus Pharmaceuticals, Inc., priority 2005, dated 2009).
Peptide text beside a SMILES is read from it. * marks the point of attachment. Cbz = O=C(OCc1ccccc1)*

Tests used:
[1] = test system: proteasome in packed whole blood lysate; assay: Dose response on PWBL lysates in vitro; assay type: biochemical, mouse; details: lysates of vehicle and 0.1 mg/kg Salinosporamide A treated animals
Source text: Palayoor et al., Oncogene 18:7389-94 (1999).

Stability in solution = assay type: physicochemical; details: converted to compound VI-1B, mixture 7:3
Method: The reaction mixture was stirred at room temperature for about 3 hours. The solvent was evaporated from the reaction mixture to yield the compound of Formula II-48, which was purified by reversed phase HPLC using Ace 5u C18 column (150 mm×22 mm ID) with a solvent gradient of 10% to 70% H2O/Acetonitrile over 15 min, 70 to 100% Acetonitrile over 5 min, holding at 100% Acetonitrile for 4 min, at a flow rate of 14.5 ml/min. Diode array detector was used to monitor the purification process. Compound II-48 (10 mg) eluted as a pure compound at 8.255 min. […] Compound VI-1B: UV (Acetonitrile/H2O) λmax 235 (sh) nm; ESMS, m/z 585.2 (M+H)^+.

[2] = test system: LeTx-induced cytotoxicity of RAW264.7 cells; details: cited from earlier work

CC[C@H](C)[C@H](NC(=O)[C@H]([C@@H](C)CC)N(C)C(C)=O)C(=O)N[C@H](C(=O)N[C@@H](CC(C)C)C(=O)[C@@]1(C)CO1)[C@@H](C)O [Epoxomicin]
hydrolysis of the proteasome substrate in PWBL lysates [1]: dose dependent inhibition in the hydrolysis of the proteasome substrate

C[C@]1(O)[C@@H](CCCl)C(=O)N[C@]1(C(=O)SCC(NC(=O)CCC(N)C(=O)O)C(=O)NCC(=O)O)[C@@H](O)[C@@H]1C=CCCC1 (stereo partly shown) [Formula II-48]
stability in solution (Stability in solution): unstable in solution

CC(=O)N[C@@H](CSC(=O)[C@]1([C@@H](O)C(C)C)NC(=O)[C@H](C)[C@@H]1O)C(=O)O [Lactacystin]
EC50 [2]: 3 µM

CC(C)C[C@@H](C=O)NC(=O)[C@H](CC(C)C)NC(=O)[C@H](CC(C)C)NC(=O)OCc1ccccc1 [MG132] (Cbz-Leu-Leu-Leu-aldehyde)
EC50 [2]: 3 µM
